Like-named read-outs stand apart in the source and are kept apart here.
How the values were obtained:
tyrosinase [1] = target: T1, tyrosinase (Agaricus bisporus, UniProt C7FF04); set-up: method as in earlier work; settings: ref 8 (Chang et al.); cited from earlier work
Target sequence in this assay (C7FF04 2-392): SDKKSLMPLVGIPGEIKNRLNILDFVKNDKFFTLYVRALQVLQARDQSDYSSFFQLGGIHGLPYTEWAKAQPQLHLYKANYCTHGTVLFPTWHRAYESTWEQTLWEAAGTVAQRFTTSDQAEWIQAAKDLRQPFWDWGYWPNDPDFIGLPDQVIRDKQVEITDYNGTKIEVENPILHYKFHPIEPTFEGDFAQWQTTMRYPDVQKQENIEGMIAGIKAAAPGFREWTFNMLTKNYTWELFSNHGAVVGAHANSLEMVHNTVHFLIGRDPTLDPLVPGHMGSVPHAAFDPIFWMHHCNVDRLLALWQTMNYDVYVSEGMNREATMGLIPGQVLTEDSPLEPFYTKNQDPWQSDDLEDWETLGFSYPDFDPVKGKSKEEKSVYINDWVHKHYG

tyrosinase [2] = target: T1, tyrosinase; test: Slow-binding (time-dependent) inhibition kinetics; assay type: biochemical; set-up: purchased Sigma-Aldrich T3824; settings: for Time dependence of interaction with tyrosinase: time-course enzyme assay
Procedure: These curves were calculated by the following Equation (1):(1) [P]=vst+vi−vs/kobs[1−exp(−kobst)] where [P] is the concentration of product from the catalytic reaction, and the first-order rate constant (kobs) is the slow-binding constant corresponding to vi and vs.
The plot of kobs versus [inhibitor, I] is represented in Figure 3B.
First, the initial enzyme–ligand complex (E·I) forms rapidly, and then the isomerized enzyme–ligand complex (E*·I) forms slowly. Using Equation (3), k3 , k4 , and Kiapp kinetic parameters were calculated as 0.0041 S^−1, 0.0004 S^−1, and 35.8 µM, respectively (Table 2).
Target sequence in this assay (C7FF04 1-392 limits assumed): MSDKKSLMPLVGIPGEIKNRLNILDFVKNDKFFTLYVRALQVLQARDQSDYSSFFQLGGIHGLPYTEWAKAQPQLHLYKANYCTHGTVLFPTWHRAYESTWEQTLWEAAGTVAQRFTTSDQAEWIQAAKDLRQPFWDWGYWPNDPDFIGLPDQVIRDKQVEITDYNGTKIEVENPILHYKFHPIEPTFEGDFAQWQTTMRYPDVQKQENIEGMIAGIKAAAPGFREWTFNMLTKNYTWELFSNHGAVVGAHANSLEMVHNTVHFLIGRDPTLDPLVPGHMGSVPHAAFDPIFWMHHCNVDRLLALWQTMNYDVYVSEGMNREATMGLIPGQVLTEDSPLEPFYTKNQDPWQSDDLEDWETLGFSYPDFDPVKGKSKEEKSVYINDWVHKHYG

tyrosinase [3] = target: T1, tyrosinase; test: Enzyme kinetics (Lineweaver-Burk and Dixon plots); assay type: biochemical; settings: Lineweaver-Burk plot
Procedure: Enzyme kinetics are used to confirm the binding positions between an enzyme and inhibitor [7]. This study confirmed the effect of the substrate concentration on tyrosinase activity using four different concentrations. The initial velocity (vi) was calculated at steady-state. A Lineweaver–Burk plot was represented by 1/v versus 1/substrate in the presence of inhibitor according to enzyme kinetics theory. Their regression lines intersected the y-axis at the same point and the x-axis at different points.
Target sequence in this assay (C7FF04 2-392): as the sequence (C7FF04 2-392) above

tyrosinase [4] = target: T1, tyrosinase; assay type: biochemical; settings: preincubated with enzyme
Target sequence in this assay (C7FF04 2-392): as above
Procedure: The amount of L-DOPA converted from L-tyrosine as substrate of this enzyme was quantified in the presence of each respective compound [7].
Briefly, tyrosinase (~45 U/mL, 130 µL) in 50 µM phosphate buffer (pH 6.8) was added to 96-well plates. Twenty microliters of each respective compound (1 mM) were dissolved in MeOH, and compounds 2 and 8 (diluted to 0.065 mM) were added. Finally, 50 µL 1.5 mM L-tyrosine were added as a substrate. After initiating the enzyme reaction at 37 °C, the products were measured using UV-Vis determination (wavelength, 475 nm) for 20 min. The inhibition ratio was calculated using the following Equation (3):Inhibitory activity (%) = [(Δcontrol − Δinhibitor)/Δcontrol] × 100(3)

[5] = time-dependent inhibition, kobs versus [I]

| Compound | Binding Mode (tyrosinase [1]) | Ki (tyrosinase [2]) | Time dependence of interaction with tyrosinase (tyrosinase [2]) | k5 (tyrosinase [2]; [5]) | k6 (tyrosinase [2]; [5]) | Binding Mode (tyrosinase [3]) | Increase of inhibitory activity by preincubation compared with IC50 in the absence of preincubation (tyrosinase [4]) |
| --- | --- | --- | --- | --- | --- | --- | --- |
| O=c1c(-c2ccc(O)cc2)coc2cc(O)c(O)cc12 [6,7,4′-trihydroxyisolflavone] | competitive inhibitor |  |  |  |  |  |  |
| O=c1c2c(O)cc(O)cc2oc2oc3cc(O)ccc3c12 [compound 2, lupinalbin A] |  | 35.8 µM | time-dependent manner | 0.0041 S^−1 | 0.0004 S^−1 | Competitive | 3 fold |
| O=c1c(-c2ccc(O)cc2O)coc2cc(O[C@@H]3O[C@H](CO[C@@H]4O[C@H](CO)[C@@H](O)[C@H](O)[C@H]4O)[C@@H](O)[C@H](O)[C@H]3O)cc(O)c12 [compound 8, 2′-hydroxygenistein-7-O-gentibioside] |  |  | did not exhibit this pattern |  |  | Competitive |  |

From publication PMC6017567, “Chemical Constituents from Apios americana and Their Inhibitory Activity on Tyrosinase” (Molecules : A Journal of Synthetic Chemistry and Natural …, 2018)
